# Reference: PubChem BioAssay (NCI)
#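 Protocol summary: plate cells (96-well), add compound at 5 concentrations, incubate 48 h, interpolate endpoints linearly. At the GI50, growth is halved. At the TGI there is no net growth.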
# How the values were obtained:
# Experiment in all cases: NCI anticancer screen, dose series, 48 h
# [1] = system: UACC-257 melanoma
# [2] = system: CAKI-1 renal
# [3] = system: SNB-75 CNS
# [4] = system: OVCAR-8 ovarian
# [5] = system: NCI-H226 lung
# [6] = system: NCI-H23 lung
# [7] = system: SF-295 CNS
# [8] = system: BT-549 breast
# [9] = system: DU-145 prostate
# [10] = system: HCT-15 colon
Compound,GI50 [1] [µM],TGI [1] [µM],GI50 [2] [µM],TGI [2] [µM],GI50 [3] [µM],TGI [3] [µM],GI50 [4] [µM],TGI [4] [µM],GI50 [5] [µM],TGI [5] [µM],GI50 [6] [µM],TGI [6] [µM],GI50 [7] [µM],TGI [7] [µM],GI50 [8] [µM],TGI [8] [µM],GI50 [9] [µM],TGI [9] [µM],GI50 [10] [µM],TGI [10] [µM]
COc1ccc(/C(=C(\c2ccccc2)[N+](=O)[O-])c2ccc(OCCN3CCCC3)cc2)cc1,2.04,4.64,2.68,9.87,2.24,8.17,11.8,31.7,4.37,18.2,4.94,18.6,1.93,5.39,4.51,17.6,9.52,21.5,1.49,4.19
CC/C(=C/c1ccc(OC)cc1)[N+](=O)[O-],2.07,4.56,1.67,3.33,2.83,15,2.23,4.98,2.07,3.86,2.15,5.74,11.3,23.3,2.42,6.42,2.17,5.07,1.48,3.08
CCCCCn1sc(=O)n(Cc2ccc(CNC(=O)C(C)c3ccc(CC(C)C)cc3)cc2)c1=O (stereo not drawn),1.48,3.02,0.562,1.92,0.431,1.86,1.09,2.73,1.3,2.67,1.45,2.96,1.74,3.92,0.972,2.23,1.17,2.4,0.424,1.62
Cc1ccc(C)c(N2CCN(c3ccncc3N)CC2)c1,14.4,34.6,13.4,83.9,16.6,59,20.2,> 100,17.2,67,12.1,61,11.1,38.5,21.9,> 100,17.9,64.8,5.61,> 100
CN(N=O)c1ccc(/C=C/c2ccnc3ccccc23)cc1,,> 100,,> 100,,> 100,,> 100,,> 100,,> 100,,> 100,,> 100,,> 100,,> 100
COc1cc2c(c3oc4c(O)cccc4c(=O)c13)CC(C(C)(O)CCl)O2 (stereo not drawn),,6.79,,7.68,,8.18,,7.94,,24.2,,6.14,,24.1,,12.5,,10.3,,> 27.2
CC1CCc2c(C(=O)Nc3ncc(Cc4cccc([N+](=O)[O-])c4)s3)csc2C1 (stereo not drawn),3.77,> 100,0.431,> 100,0.369,1.66,1.42,> 100,1.96,> 100,1.83,> 100,0.4,> 100,1.25,> 100,1.05,> 100,0.389,> 100
O=C1c2ccc3c4c(ccc(c24)C(=O)N1CCCCO)C(=O)N(CCCCO)C3=O,1.3,2.71,2.27,13.6,3.12,13.6,1.33,8.45,3.45,15.5,1.6,5.17,1.14,4.84,4.82,17.4,2.2,6.32,1.55,10.5
Cc1cnc(C(=O)Nc2nc3ccc(S(=O)(=O)Nc4ccc(C(C)(C)C)cc4)cc3[nH]2)cn1,2.39,22.7,0.544,16.4,0.216,1.01,1.26,17.2,0.723,7.35,0.606,12.7,0.401,4.21,1.12,13.6,0.525,4.51,0.304,3.09
N#Cc1cnn(C(=O)c2nn(-c3ccc(Cl)cc3)cc2O)c1N,0.47,10.6,0.259,1.47,0.248,17.8,0.474,> 44.4,0.349,7.45,0.371,15.1,0.163,0.646,0.287,7.17,0.57,28.4,0.338,13.1
COc1ccc2c(c1O)[C@@]13CCCC=C1[C@@H](C2)N(C)CC3,,> 100,,> 100,,> 100,,> 100,,> 100,,> 100,,> 100,,> 100,,> 100,,> 100
CCOC(=O)Nc1cc2c(c(N)n1)N=C(c1ccc(Cl)cc1Cl)CN2,,90.6,,33.7,,36.5,,37.2,,18,,27.5,,0.0108,,33.1,,13.3,,9.02
COc1cc(OC)c(/C=C/S(=O)(=O)Cc2ccc(OC)c(N)n2)c(OC)c1,> 100,> 100,< 0.01,> 100,,> 100,< 0.018,> 100,,> 100,< 0.0247,> 100,< 0.01,> 100,< 0.01,> 100,< 0.01,> 100,< 0.01,> 100
